Results as given in patent US10550165B2, “Peptide for inducing regeneration of tissue and use thereof” (STEMRIM INC., priority 2011, dated 2020).

Legend:
[1] = system: mouse bone marrow mesenchymal stem cell line (MSC-1 cells), PDGFRα-positive; assay: Migration assay (Boyden / 48-well chemotaxis chamber) on bone marrow mesenchymal stem cell line MSC-1; format: cell-based
Procedure, shortened: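 Mouse MSC-1 cells (3×10^6 cells/ml in D-MEM with 10% FBS) loaded in the upper wells of a 48-well Boyden chamber with 8 μm polycarbonate membrane; mouse HMGB1 peptides or HEK293-made HMGB1 in lower wells at 100 μg/ml, 5 μM or 10 μM; PBS as negative control. After 4 h at 37° C, migrated cells were Diff-Quik stained.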

[2] = system: PDGFRα-positive, CD44-positive cells in the peripheral blood; assay: Mobilization of PDGFRα-positive, CD44-positive cells into peripheral blood (FACS); format: in vivo, mouse; settings: 10 μg via the caudal vein, C57Bl6 mice, blood after 12 hours; PBS group 1.33%
Method: 10 μg of synthetic peptide (amino acids of positions 1 to 44) was dissolved in 200 μl of PBS and administered to C57B16 mice (female, 8 weeks old) via the caudal vein using a syringe with 30-gauge needle. An equal volume of PBS was administered as a negative control. After 12 hours, peripheral blood was collected from the left ventricle of the heart under systemic anesthesia with isoflurane. After adding 3 ml of PBS (Nacalai tesque; Cat. 14249-95), 3 ml of Ficoll-Paque Plus (GE Healthcare; Cat. 17-1440-02) was overlaid onto the blood. The blood was centrifuged in a centrifuge at 400 G and 25° C. for 45 minutes. The upper serum layer was discarded, and only the cells seen as a white band in the intermediate layer were collected. Then, 45 ml of PBS was added to the collected cells, and centrifuged in a centrifuge at 800 G and 25° C. for 20 minutes. After the supernatant was discarded, 10 ml of PBS was added and centrifuged at 1500 rpm and 25° C. for 10 minutes. The supernatant was discarded and 1 ml of hemolysis buffer (HLB; Immuno-Biological Laboratories) was added to the cells. After pipetting, the cells were allowed to stand for 5 minutes. Then, 10 ml of PBS was added to the cells and centrifuged at 1500 rpm and 25° C. for 10 minutes. […] The cells prepared as described above were analyzed using FACSCant™ II.

[3] = system: skin flap made on the back of a rat; assay: Skin flap (skin damage) model on the back of rats; format: in vivo; settings: six weeks after skin flap production; 50 μg/administration/day, five administrations, FIG. 26
[4] = 2 μM, area of migrated cells by image analysis, FIG. 10

What does the source list for “synthetic peptide (1-44): chemically synthesized HMGB1 peptide, amino acids 1 to 44, mouse HMGB1 sequence (MGKGDPKKPRGKMSSYAFFVQTCREEHKKKHPDASVNFSEFSKK; UniProt P63158 1-44, looked up, fragment)”?
migration-promoting activity relative to the full-length HMGB1, compared per equal mass [1, 4]: 2.86 times; migration-promoting activity relative to the full-length HMGB1, compared per equal mole [1, 4]: 0.57 times; migration-promoting activity ([1]; synthetic peptides, 100 μg/ml, positive control 1-215(HEK), FIG. 7): activity comparable to or higher than that of the positive control; proportion of PDGFRα-positive, CD44-positive cells in the peripheral blood, average [2]: 4.33%; ratio of the uncured area relative to the area of the whole skin flap, average [3]: 4.1%
